Structures can show the parent of a compound that is named as a salt.

The target of one data set is HIFPH2 (EGLN1) (Homo sapiens (Human), UniProt Q9GZT9). Kind of data set: EGLN-1 Activity Assay (MALDI-TOF MS). The settings on record: recombinant human EGLN-1-179/426, HIF-1α peptide 556-574. The class given is biochemical. Here is the method: The enzyme, quantity predetermined to hydroxylate 20% of substrate in 20 minutes, is added to start the reaction. Where inhibitors are used, compounds are prepared in dimethyl sulfoxide at 10-fold final assay concentration. After 20 minutes at room temperature, the reaction is stopped by transferring 10 μL of reaction mixture to 50 μL of a mass spectrometry matrix solution (α-cyano-4-hydroxycinnamic acid, 5 mg/mL in 50% acetonitrile/0.1% TFA, 5 mM NH4PO4). Two microliters of the mixture is spotted onto a MALDI-TOF MS target plate for analysis with an Applied Biosystems (Foster City, Calif.) 4700 Proteomics Analyzer MALDI-TOF MS equipped with a Nd:YAG laser (355 nm, 3 ns pulse width, 200 Hz repetition rate). Hydroxylated peptide product is identified from substrate by the gain of 16 Da. Data defined as percent conversion of substrate to product is analyzed in GraphPad Prism 4 to calculate IC50 values.
Chain of HIFPH2 (EGLN1) (Q9GZT9 179-426): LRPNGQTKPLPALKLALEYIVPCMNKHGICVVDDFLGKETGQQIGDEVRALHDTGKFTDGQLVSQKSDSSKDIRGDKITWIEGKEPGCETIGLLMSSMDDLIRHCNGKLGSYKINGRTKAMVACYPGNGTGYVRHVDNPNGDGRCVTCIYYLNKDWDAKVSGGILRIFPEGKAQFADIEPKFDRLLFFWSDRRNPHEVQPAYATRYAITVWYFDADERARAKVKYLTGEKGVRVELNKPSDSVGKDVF
“1-Benzyl-3-hydroxy-4-(4-benzylpiperidin-1-ylmethyl)pyridin-2(1H)-one [Compound B9]”: the half-inhibitory concentration (IC50) (usually the midpoint of a concentration-inhibition curve) was 17 µM.

Regarding “1-Benzyl-3-hydroxy-4-(benzylaminomethyl)pyridin-2(1H)-one [Compound C1]”, the IC50 worked out at 12 µM.

With `COc1ccccc1Cn1ccc(CN2CCCCCC2)c(O)c1=O` [Compound A18], the IC50 was 18 µM.

For the molecule `CC(C)(C)OC(=O)N1CCN(Cc2ccn(Cc3ccc(Cl)cc3)c(=O)c2O)CC1` [Compound A41, tert-butyl 4-{[1-(4-chlorobenzyl)-3-hydroxy-2-oxo-1,2-dihydropyridin-4-yl]methyl}-piperazine-1-carboxylate], the half-inhibitory concentration (IC50) came out at 14 µM.

`COC[C@H]1CCCN1Cc1ccn(Cc2ccccc2)c(=O)c1O` [Compound B5, 1-Benzyl-3-hydroxy-4-{[2-(methoxymethyl)pyrrolidin-1-yl]methyl}pyridin-2(1H)-one]: the IC50 was found to be 9 µM.

For `O=c1c(O)c(CN2CCN(c3ccc(Cl)nn3)CC2)ccn1Cc1ccccc1` [Compound B14, 1-Benzyl-3-hydroxy-4-[4-(6-chloropyridazin-3-yl)piperazin-1-ylmethyl]pyridin-2(1H)-one], the IC50 is 11 µM.

In the case of `CC(NCc1ccn(Cc2ccccc2)c(=O)c1O)c1ccccc1` (centres unmarked) [Compound C14, 1-Benzyl-3-hydroxy-4-[(1-phenylethylamino)methyl]pyridin-2(1H)-one], the IC50 turned out to be 12 µM.

Consider `CC1CCC(NCc2ccn(Cc3ccccc3)c(=O)c2O)CC1` (centres unmarked) [Compound C17, 1-Benzyl-3-hydroxy-4-[(4-methylcyclohexylamino)methyl]pyridin-2(1H)-one], for which the IC50 came to 11 µM.

On to `O=C1NCCCCC1NCc1ccn(Cc2ccccc2)c(=O)c1O` (centres unmarked) [Compound C19, 3-[(1-Benzyl-3-hydroxy-2-oxo-1,2-dihydropyridin-4-yl)methylamino]azepan-2-one], for which the concentration for half-maximal inhibition (IC50) was 12 µM.

Turning to `CSCCNCc1ccn(Cc2ccccc2)c(=O)c1O` [Compound C33], the half-inhibitory concentration (IC50) came to 16 µM.

Turning to `O=c1c(O)c(CNCCCn2ccnc2)ccn1Cc1ccccc1` [Compound C35], the IC50 is 12 µM.

As to `Cc1ccc(S(=O)(=O)n2ccc(CN3CCC(N4CCCCC4)CC3)c(O)c2=O)cc1` [Compound D10, 1-(4′-Methylbenzenesulfonyl)-3-hydroxy-4-[1,4]Bipiperidinyl-1′-ylmethylpyridin-2(1H)-one], the IC50 came to 4.4 µM.

`Cc1ccc(S(=O)(=O)n2ccc(CN3CCN(c4ccc(Cl)nn4)CC3)c(O)c2=O)cc1` [Compound D14, 1-(4′-Methylbenzenesulfonyl)-3-hydroxy-4-[4-(6-chloropyridazin-3-yl)piperazin-1-ylmethyl]pyridin-2(1H)-one]: the IC50 is 12 µM.

In the case of `O=c1c(O)cccn1Cc1cccc(Cl)c1` [Compound F2, 1-(3-chlorobenzyl)-3-hydroxypyridin-2(1H)-one], the IC50 stood at 5 µM.

Take `O=c1c(O)cccn1Cc1ccc(Cl)cc1` [Compound F3, 1-(4-chlorobenzyl)-3-hydroxypyridin-2(1H)-one]: the concentration for half-maximal inhibition (IC50) was 1.2 µM.

Test system in a further data set: not listed separately
Kind of data set: solubility of pharmaceutically acceptable salts in water. The format is physicochemical.
Details: not given
Here is the method:
The formulator can determine the solubility of the pharmaceutically acceptable salts of the disclosed inhibitors by any method desirable. The following is a non-limiting example of a procedure for evaluating the solubility of a salt of a disclosed inhibitor. A suspension of tert-butyl-{1[-(4-chlorobenzyl)-3-hydroxy-2-oxo-1,2-dihydropyridin-4-yl]methyl}-piperazine-1-carboxylate methanesulfonate (26.6 mg) in distilled deionized water (3.0 mL) is sonicated for 20 min with water bath temperature under 25° C. The suspension is filtered to remove any insoluble salt. The clear filtrate solution (200 μL) is diluted with distilled deionized water (800 μL) and subjected to HPLC analysis. The following are results for the pharmaceutically acceptable salts outlined in Table VII above.
Turning to `CC(C)(C)OC(=O)N1CCN(Cc2ccn(Cc3ccc(Cl)cc3)c(=O)c2O)CC1` [hydrochloride, tert-butyl-{[1-(4-chlorobenzyl)-3-hydroxy-2-oxo-1,2-dihydropyridin-4-yl]methyl}-piperazine-1-carboxylate], the Solubility – broadly, how much of the substance goes into solution per volume – was 5900 µg/mL.

Regarding `CC(C)(C)OC(=O)N1CCN(Cc2ccn(Cc3ccc(Cl)cc3)c(=O)c2O)CC1` [p-toluenesulfonate, tert-butyl-{[1-(4-chlorobenzyl)-3-hydroxy-2-oxo-1,2-dihydropyridin-4-yl]methyl}-piperazine-1-carboxylate], the “Solubility” value worked out at 2300 µg/mL.

Turning to “tert-butyl-{[1-(4-chlorobenzyl)-3-hydroxy-2-oxo-1,2-dihydropyridin-4-yl]methyl}-piperazine-1-carboxylate [hydrogensulfonate]”, the “Solubility” value turned out to be 13200 µg/mL.

Staying with this data set, now noted: thermodynamic from solid; distilled deionized water, sonicated 20 min, under 25° C., HPLC.
With `CC(C)(C)OC(=O)N1CCN(Cc2ccn(Cc3ccc(Cl)cc3)c(=O)c2O)CC1` [Compound A41, tert-butyl 4-{[1-(4-chlorobenzyl)-3-hydroxy-2-oxo-1,2-dihydropyridin-4-yl]methyl}-piperazine-1-carboxylate], the solubility (in general, how much of the substance goes into solution per volume) at 20 min was approximately 1 µg/mL.

Take `CC(C)(C)OC(=O)N1CCN(Cc2ccn(Cc3ccc(Cl)cc3)c(=O)c2O)CC1.CS(=O)(=O)O` [methanesulfonate, tert-butyl-{1[-(4-chlorobenzyl)-3-hydroxy-2-oxo-1,2-dihydropyridin-4-yl]methyl}-piperazine-1-carboxylate methanesulfonate]: the solubility at 20 min worked out at 16600 µg/mL.

Another data set relates to phosphoglycerate kinase (PGK) expression. As to the kind of experiment: PGK expression in wild type murine embryonic fibroblasts. The format is cell-based. The settings on record: 1 μM, 10 μM vs. wild type control (FIG. 12).
With `O=c1c(O)cccn1Cc1cccc(Cl)c1` [Compound F2, 1-(3-chlorobenzyl)-3-hydroxypyridin-2(1H)-one], the PGK expression result is on record as “up regulation”.

For a further data set, the system named is Staphylococcus aureus.
Assay: not given
The settings on record: dose-dependent; Zinkernagel et al. 2008; cited from earlier work.
In the case of `NC(Cn1ccc(=O)c(O)c1)C(=O)O` (centres unmarked) [mimosine], the “capacity of human phagocytes and whole blood to kill Staphylococcus aureus” value is “boost”.

A further data set deals with S. aureus.
Assay: not given
The settings on record: Zinkernagel et al. 2008; cited from earlier work.
In the case of `NC(Cn1ccc(=O)c(O)c1)C(=O)O` (centres unmarked) [mimosine], the lesion size result is listed as “reduce the lesion size”.

(Values after US8536181B2, “Prolyl hydroxylase inhibitors” (Aerpio Therapeutics Inc., priority 2009, dated 2013).)
